One test addresses T1, caspase-1 (Homo sapiens, UniProt P29466).
T1 sequence (P29466 120-297 limits assumed): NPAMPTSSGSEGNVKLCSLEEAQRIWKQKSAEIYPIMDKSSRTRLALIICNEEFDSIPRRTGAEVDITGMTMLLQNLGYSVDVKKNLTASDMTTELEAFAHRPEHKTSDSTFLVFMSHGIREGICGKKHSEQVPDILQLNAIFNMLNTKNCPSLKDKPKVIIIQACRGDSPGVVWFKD
T1 sequence (P29466 317-404 limits assumed): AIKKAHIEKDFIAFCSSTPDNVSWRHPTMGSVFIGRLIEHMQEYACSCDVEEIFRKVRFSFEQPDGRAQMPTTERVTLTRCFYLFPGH
Nature of the test: Caspase-1 enzyme inhibition (Ki, method of Margolin et al.). Type of test: biochemical. Particulars: Suc-YVAD-pNA substrate 80 μM, 37° C., pH 7.5; read-out: Ki C1. The protocol: (§1) Compounds of this invention may be tested using the methods described below.
(§2) In Vitro Assays Enzyme Inhibition
(§3) Ki values for test compounds with caspase-1 and caspase-8 were obtained by the method of Margolin et al. (J. Biol. Chem., 272 pp. 7223-7228 (1997)). Other caspases may be assayed similarly (see, e.g., WO 99/47545). Assays were performed in 10 mM Tris (Sigma Corp, St Louis Mo.) pH 7.5, 1 mM Dithiothreitol (DTT, Research Organic INC, Cleveland, Ohio) and 0.1% CHAPS (Pierce, Rockford Ill.) at 37° C. For caspase-3, a solution of 8% glycerol was added to the assay buffer to improve enzyme stability. A 65 μL aliquot of the assay buffer and 5 μL aliquot of the appropriate dilutions of inhibitor in DMSO where pipetted into a 96 well plate, treated with 10 μL of caspase, then diluted in assay buffer (0.5-40 nM active protein by active site titration). A control containing DMSO but no compound was included for each determination. The plates were then incubated for 15 minutes at 37° C., before addition of the appropriate substrate (20 μL, final concentration 1-4×KM, final assay volume 100 μL) to initiate the reaction. Reaction rates were measured at 37° C. either by following the time dependant increase in absorbance at 405 nm (for the pNA substrates) or in fluorescence (Ex 390, Em 460) (for the AMC substrates). The rates obtained were plotted against inhibitor concentration and the data fit to the Morrison tight-binding equation for competitive inhibitors (Morrison, J. F., Biochem. Biophys. Acta, 185 pp. 269-286 (1969)). The substrates used for the individual assays were as follows:
Caspase-1 Suc-YVAD-pNA (Bachem, King of Prussia, Pa.) (final concentration in the assay 80 μM);

For a further test, the target named is caspase-8 (Homo sapiens, UniProt Q14790). Nature of the test: Caspase-8 enzyme inhibition (Ki, method of Margolin et al.). Type of test: biochemical. Particulars: Ac-DEVD-pNA substrate 80 μM, 37° C., pH 7.5; read-out: Ki C8. The protocol: as §1, §2, §3
Caspase-8 Ac-DEVD-pNA (Bachem, King of Prussia, Pa.) (final concentration in assay 80 μM).

These results are taken from patent publication US7652153B2, “Caspase inhibitors and uses thereof” (Vertex Pharmaceuticals Incorporated, priority 2004, dated 2010).

The Ki is a measure of affinity in units of concentration, obtained from inhibition or displacement.

The structures appear in SMILES notation. Some results are limits rather than exact numbers.

caspase-8, sequence (Q14790 217-374 limits assumed, species assumed): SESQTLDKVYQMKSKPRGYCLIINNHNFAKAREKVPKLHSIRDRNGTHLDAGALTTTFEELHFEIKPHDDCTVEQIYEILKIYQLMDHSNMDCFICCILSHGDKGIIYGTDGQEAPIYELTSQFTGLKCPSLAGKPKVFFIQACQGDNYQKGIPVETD
caspase-8, sequence (Q14790 385-479 limits assumed, species assumed): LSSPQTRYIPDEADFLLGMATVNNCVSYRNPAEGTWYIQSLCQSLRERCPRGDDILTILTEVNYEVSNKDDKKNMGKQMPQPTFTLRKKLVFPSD

For the compound `CC(C)[C@H](NC(=O)c1ccccc1C(F)(F)F)C(=O)N1CCC[C@H]1C(=O)N[C@H](C=O)CC(=O)O` [II-27, (S,S,S)-(3S)-({1-[3-Methyl-(2S)-(2-trifluoromethyl-benzoylamino)-butyryl]-pyrrolidine-(2S)-carbonyl}-amino)-4-oxo-butyric acid], the Ki on caspase-1 and at caspase-8 was less than 10 nM each time.

As to `CC(C)(C)[C@H](NC(=O)c1ccccc1Cl)C(=O)N1CCC[C@H]1C(=O)N[C@H](C=O)CC(=O)O` [II-28, (S,S,S)-(3S)-({1-[(2S)-(2-Chloro-benzoylamino)-3,3-dimethyl-butyryl]-pyrrolidine-(2S)-carbonyl}-amino)-4-oxo-butyric acid], the inhibition constant (Ki) on caspase-1 and on caspase-8 was less than 10 nM throughout.

As for `CC(C)(C)[C@H](NC(=O)c1ccccc1C(F)(F)F)C(=O)N1CCC[C@H]1C(=O)N[C@H](C=O)CC(=O)O` [II-29, (S,S,S)-(3S)-({1-[3,3-Dimethyl-(2S)-(2-trifluoromethyl-benzoylamino)-butyryl]-pyrrolidine-(2S)-carbonyl}-amino)-4-oxo-butyric acid], the Ki at caspase-1 and on caspase-8 was less than 10 nM in each case.

As for `COc1cccc(C(=O)N[C@H](C(=O)N2CCC[C@H]2C(=O)N[C@H](C=O)CC(=O)O)C(C)(C)C)c1Cl` [II-30, (S,S,S)-(3S)-({1-[(2S)-(2-Chloro-3-methoxy-benzoylamino)-3,3-dimethyl-butyryl]-pyrrolidine-(2S)-carbonyl}-amino)-4-oxo-butyric acid], the Ki at caspase-1 and on caspase-8 was less than 10 nM each time.

With `COc1cccc(C(=O)N[C@H](C(=O)N2CCC[C@H]2C(=O)N[C@H](C=O)CC(=O)O)C(C)(C)C)c1F` [II-31, (S,S,S)-(3S)-({1-[(2S)-(2-Fluoro-3-methoxy-benzoylamino)-3,3-dimethyl-butyryl]-pyrrolidine-(2S)-carbonyl}-amino)-4-oxo-butyric acid], the Ki at caspase-1 and on caspase-8 was less than 10 nM each time.

Turning to `CC(C)(C)[C@H](NC(=O)c1cccc(OC(F)(F)F)c1Cl)C(=O)N1CCC[C@H]1C(=O)N[C@H](C=O)CC(=O)O` [II-32, (S,S,S)-(3S)-({1-[(2S)-(2-Chloro-3-trifluoromethoxy-benzoylamino)-3,3-dimethyl-butyryl]-pyrrolidine-(2S)-carbonyl}-amino)-4-oxo-butyric acid], the inhibition constant Ki on caspase-1 and at caspase-8 was less than 10 nM in each case.

Consider `CC(C)(C)[C@H](NC(=O)c1cccc(OC2CC2)c1Cl)C(=O)N1CCC[C@H]1C(=O)N[C@H](C=O)CC(=O)O` [II-33, (S,S,S)-(3S)-({1-[(2S)-(2-Chloro-3-cyclopropyloxy-benzoylamino)-3,3-dimethyl-butyryl]-pyrrolidine-(2S)-carbonyl}-amino)-4-oxo-butyric acid], for which the Ki at caspase-1 and at caspase-8 was less than 10 nM in each case.

On to `Cc1cccc(C(=O)N[C@H](C(=O)N2CCC[C@H]2C(=O)N[C@H](C=O)CC(=O)O)C(C)(C)C)c1Cl` [II-34, (S,S,S)-(3S)-({1-[(2S)-(2-Chloro-3-methyl-benzoylamino)-3,3-dimethyl-butyryl]-pyrrolidine-(2S)-carbonyl}-amino)-4-oxo-butyric acid], for which the Ki at caspase-1 and at caspase-8 was less than 10 nM each time.

Turning to `COc1cccc(C(=O)N[C@H](C(=O)N2CCC[C@H]2C(=O)N[C@H](C=O)CC(=O)O)C(C)C)c1Cl` [II-35, (S,S,S)-(3S)-({1-[(2S)-(2-chloro-3-methoxy-benzoylamino)-3-methyl-butyryl]-pyrrolidine-(2S)-carbonyl}-amino)-4-oxo-butyric acid], the Ki at caspase-1 and on caspase-8 was less than 10 nM throughout.

As to `CCc1cccc(C(=O)N[C@H](C(=O)N2CCC[C@H]2C(=O)N[C@H](C=O)CC(=O)O)C(C)(C)C)c1Cl` [II-36, (S,S,S)-(3S)-({1-[(2S)-(2-Chloro-3-ethyl-benzoylamino)-3,3-dimethyl-butyryl]-pyrrolidine-(2S)-carbonyl}-amino)-4-oxo-butyric acid], the inhibition constant Ki on caspase-1 and at caspase-8 was less than 10 nM in each case.

Consider `COc1ccc(C(=O)N[C@H](C(=O)N2CCC[C@H]2C(=O)N[C@H](C=O)CC(=O)O)C(C)C)c(Cl)c1` [II-37, (S,S,S)-(3S)-({1-[(2S)-(2-chloro-4-methoxy-benzoylamino)-3-methyl-butyryl]-pyrrolidine-(2S)-carbonyl}-amino)-4-oxo-butyric acid], for which the Ki was less than 10 nM on caspase-1 and 10 to 20 nM on caspase-8.

As to `CC(C)(C)[C@H](NC(=O)c1cccc(OCC2CC2)c1Cl)C(=O)N1CCC[C@H]1C(=O)N[C@H](C=O)CC(=O)O` [II-38, (S,S,S)-(3S)-({1-[(2S)-(2-Chloro-3-cyclopropylmethoxy-benzoylamino)-3,3-dimethyl-butyryl]-pyrrolidine-(2S)-carbonyl}-amino)-4-oxo-butyric acid], the Ki at caspase-1 and on caspase-8 was less than 10 nM each time.

For the compound `CC(C)(C)[C@H](NC(=O)c1cccc(O)c1Cl)C(=O)N1CCC[C@H]1C(=O)N[C@H](C=O)CC(=O)O` [II-39, (S,S,S)-(3S)-({1-[(2S)-(2-Chloro-3-hydroxy-benzoylamino)-3,3-dimethyl-butyryl]-pyrrolidine-(2S)-carbonyl}-amino)-4-oxo-butyric acid], the Ki at caspase-1 and on caspase-8 was less than 10 nM throughout.

Turning to `CC(=O)Nc1ccc(C(=O)N[C@H](C(=O)N2CCC[C@H]2C(=O)N[C@H](C=O)CC(=O)O)C(C)C)c(Cl)c1` [II-40, (S,S,S)-(3S)-({1-[(2S)-(2-chloro-4-acetamido-benzoylamino)-3-methyl-butyryl]-pyrrolidine-(2S)-carbonyl}-amino)-4-oxo-butyric acid], the values for the Ki at caspase-1 and on caspase-8 were less than 10 nM and 10 to 20 nM, respectively.

Consider `CC(=O)Nc1cccc(C(=O)N[C@H](C(=O)N2CCC[C@H]2C(=O)N[C@H](C=O)CC(=O)O)C(C)(C)C)c1Cl` [II-41, (S,S,S)-(3S)-({1-[(2S)-(2-Chloro-3-acetamido-benzoylamino)-3,3-dimethyl-butyryl]-pyrrolidine-(2S)-carbonyl}-amino)-4-oxo-butyric acid], for which the Ki on caspase-1 and on caspase-8 was less than 10 nM each time.

In the case of `CC(=O)Nc1cccc(C(=O)N[C@H](C(=O)N2CCC[C@H]2C(=O)N[C@H](C=O)CC(=O)O)C(C)(C)C)c1C` [II-42, (S,S,S)-(3S)-({1-[(2S)-(2-methyl-3-acetamido-benzoylamino)-3,3-dimethyl-butyryl]-pyrrolidine-(2S)-carbonyl}-amino)-4-oxo-butyric acid], the results for the Ki on caspase-1 and at caspase-8 were less than 10 nM and 10 to 20 nM, respectively.

For the compound `CC(=O)Nc1ccc(C(=O)N[C@H](C(=O)N2CCC[C@H]2C(=O)N[C@H](C=O)CC(=O)O)C(C)(C)C)c(Cl)c1` [II-43, (S,S,S)-(3S)-({1-[(2S)-(2-chloro-4-acetamido-benzoylamino)-3,3-dimethyl-butyryl]-pyrrolidine-(2S)-carbonyl}-amino)-4-oxo-butyric acid], the inhibition constant Ki on caspase-1 and on caspase-8 was less than 10 nM each time.

As to `CC(=O)Nc1ccc(C(=O)N[C@H](C(=O)N2CCC[C@H]2C(=O)N[C@H](C=O)CC(=O)O)C(C)(C)C)c(F)c1` [II-44, (S,S,S)-(3S)-({1-[(2S)-(2-fluoro-4-acetamido-benzoylamino)-3,3-dimethyl-butyryl]-pyrrolidine-(2S)-carbonyl}-amino)-4-oxo-butyric acid], the Ki at caspase-1 and on caspase-8 was less than 10 nM each time.

Take `CC(=O)Nc1ccc(C(=O)N[C@H](C(=O)N2CCC[C@H]2C(=O)N[C@H](C=O)CC(=O)O)C(C)C)c(F)c1` [II-45, (S,S,S)-(3S)-({1-[(2S)-(2-fluoro-4-acetamido-benzoylamino)-3-methyl-butyryl]-pyrrolidine-(2S)-carbonyl}-amino)-4-oxo-butyric acid]: the Ki at caspase-1 and at caspase-8 was less than 10 nM in each case.

On to `CC(C)Oc1ccc(C(=O)N[C@H](C(=O)N2CCC[C@H]2C(=O)N[C@H](C=O)CC(=O)O)C(C)C)c(Cl)c1` [II-46, (S,S,S)-(3S)-({1-[(2S)-(2-chloro-4-isopropyloxy-benzoylamino)-3-methyl-butyryl]-pyrrolidine-(2S)-carbonyl}-amino)-4-oxo-butyric acid], for which the inhibition constant (Ki) was less than 10 nM at caspase-1 and 21 to 30 nM on caspase-8.

Take `CC(C)(C)[C@H](NC(=O)c1ccc(O)cc1Cl)C(=O)N1CCC[C@H]1C(=O)N[C@H](C=O)CC(=O)O` [II-47, (S,S,S)-(3S)-({1-[(2S)-(2-chloro-4-hydroxy-benzoylamino)-3,3-dimethyl-butyryl]-pyrrolidine-(2S)-carbonyl}-amino)-4-oxo-butyric acid]: the inhibition constant Ki on caspase-1 and on caspase-8 was less than 10 nM in each case.
